The data set deals with T1, PXR (Homo sapiens, UniProt O75469).
T1 construct: expressed in transfected cells; host or cells: HepG2 cells, transient electroporation with pSG5-PXR and the CYP3A4-PXRE-LUC reporter
T1 sequence (O75469 1-434): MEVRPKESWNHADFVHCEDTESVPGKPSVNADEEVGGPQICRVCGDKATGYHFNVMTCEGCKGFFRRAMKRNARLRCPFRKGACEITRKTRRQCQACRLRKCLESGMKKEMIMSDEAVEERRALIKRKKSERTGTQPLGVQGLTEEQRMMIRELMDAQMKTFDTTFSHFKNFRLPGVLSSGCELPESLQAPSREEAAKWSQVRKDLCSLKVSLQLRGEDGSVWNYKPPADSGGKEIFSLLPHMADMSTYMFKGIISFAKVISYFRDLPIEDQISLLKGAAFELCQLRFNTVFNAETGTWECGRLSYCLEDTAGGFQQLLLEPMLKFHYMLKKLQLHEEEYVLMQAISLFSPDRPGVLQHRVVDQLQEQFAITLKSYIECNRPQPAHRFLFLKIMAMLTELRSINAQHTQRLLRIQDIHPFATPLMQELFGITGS
The data set can be described thus: PXR activation, luciferase reporter gene assay in HepG2 cells. The format is cell-based. The protocol:
The modulation of PXR activity by test samples was determined in HepG2 cells transiently transfected with pSG5-PXR (25 μg) and PCR5 plasmid DNA (25 μg) by electroporation at 180 V, 1 pulse for 70 msec. The cells were plated in 96-well plates at a density of 50,000 cells per well. After 24 h, test samples and drug controls were added at various concentrations. After additional 24 hour incubation, the media was aspirated and 40 μL of luciferase reagent (Promega Corporation, Madison, WI, USA) was added to each well and luminescence was measured on Spectramax M5 plate reader (Molecular Devices, Sunnyvale, CA, USA). The fold induction in luciferase activity in the treated cells was calculated in comparison to vehicle treated cells.
Background: In a reporter assay the amount or activity of a reporter protein is the signal.

In the case of `CCCC/C=C\CCCCCCCCCc1cc(O)cc2oc3cc(OC)c(O)c(CCCCCCCCC/C=C\CCCC)c3c12` [Fatimahol], the “Induction of PXR activity” value (HepG2, 30 μM (highest tested concentration), vs vehicle) is 1.8 fold. Moreover, under “HepG2, below 30 μM”, the “Induction of PXR activity at lower concentration” value was “not significant”.

(Values after PMC4126480, “Evaluation of drug interaction potential of Labisia pumila (Kacip Fatimah) and its constituents” (Frontiers in Pharmacology, 2014).)
